Data set [1] concerns the target T1, Mammalian TrxR (Homo sapiens, UniProt Q16881).
T1 sequence (Q16881 151-649 limits assumed): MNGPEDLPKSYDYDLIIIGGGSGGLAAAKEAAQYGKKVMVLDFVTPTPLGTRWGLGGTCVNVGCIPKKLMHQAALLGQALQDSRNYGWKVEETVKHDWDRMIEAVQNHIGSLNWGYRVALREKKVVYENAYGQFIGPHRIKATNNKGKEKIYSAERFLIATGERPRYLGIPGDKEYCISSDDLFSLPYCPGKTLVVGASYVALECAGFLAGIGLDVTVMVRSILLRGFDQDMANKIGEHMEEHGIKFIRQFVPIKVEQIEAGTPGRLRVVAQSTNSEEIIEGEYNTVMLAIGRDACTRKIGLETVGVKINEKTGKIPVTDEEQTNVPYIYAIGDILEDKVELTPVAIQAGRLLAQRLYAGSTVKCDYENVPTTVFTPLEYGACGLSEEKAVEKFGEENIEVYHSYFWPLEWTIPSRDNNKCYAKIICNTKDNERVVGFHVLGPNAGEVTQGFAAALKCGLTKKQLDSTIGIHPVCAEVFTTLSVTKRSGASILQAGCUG
As to conditions: from ref (3) / (32); cited from earlier work.

A further data set deals with E. coli Trx-(SH)2 (Escherichia coli, UniProt P0AA25). As to conditions: fluorescence spectroscopy, ref (32); cited from earlier work.
Data set [2] concerns the target T2, E. coli TrxR (Escherichia coli, UniProt P0A9P4). Put plainly: E. coli TrxR inhibition, thioredoxin dependent DTNB reduction assay. The class given is biochemical. As to conditions: Lineweaver-Burk plots, reduction of DTNB, read-out: Ki (dissociation constant of inhibitor-TrxR complex), competitive inhibition of E. coli TrxR.
In data set [3] the target is T2, E. coli TrxR. The description is as above. The class given is biochemical. The method, then: Further we examined the effect of ebselen in the reduction of disulfide by E. coli Trx and TrxR using both DTNB and insulin as substrates.
All the benzisoselenazol-3(2H)-one and bisbenzisoselenazol-3(2H)-one derivatives were tested as potential E. coli TrxR inhibitors by standard DTNB assay. […] The reactions were started by adding 1 mM DTNB to the mixture of 100 nM TrxR, 2 μM Trx, 240 μM NADPH, and different concentration of inhibitor (1-40 μM). […] The reactions were started by adding 6 nM TrxR at room temperature. Inhibition constants (Ki) for all the compounds were measured from Dixon plot, which plots 1/v versus […], I=Inhibitor concentration).

In a further data set the target is H. pylori TrxR (Helicobacter pylori, UniProt P56431). Put plainly: H. pylori TrxR activity, insulin reduction assay. As to conditions: 4, 20, and 40 μM.
Data set [4] concerns the target T1, Mammalian TrxR. Nature of the data set: Kinetic parameters with mammalian TrxR. Type of data set: biochemical. As to conditions: sulphur analogues.
For the next data set, the system named is H. pylori strains. Nature of the data set: MIC against H. pylori strains.
Data set [5] concerns the target T2, E. coli TrxR. Put plainly: Kinetic parameters (substrate) with E. coli TrxR. The class given is biochemical.
A further data set deals with Staphylococcus aureus. As to conditions: cited from earlier work.
For a further data set, the system named is E. coli. Type of data set: cell-based, Escherichia coli.
The test system of the next data set is GSH. Put plainly: GSH amount in bacterial cell lysates. As to conditions: wt E. coli, 5 μM silver and 10 μM ebselen, 1 h.
For another data set, the target named is T3, recombinant rat TrxR (Rattus norvegicus, UniProt O89049).
T3 sequence (O89049 1-499): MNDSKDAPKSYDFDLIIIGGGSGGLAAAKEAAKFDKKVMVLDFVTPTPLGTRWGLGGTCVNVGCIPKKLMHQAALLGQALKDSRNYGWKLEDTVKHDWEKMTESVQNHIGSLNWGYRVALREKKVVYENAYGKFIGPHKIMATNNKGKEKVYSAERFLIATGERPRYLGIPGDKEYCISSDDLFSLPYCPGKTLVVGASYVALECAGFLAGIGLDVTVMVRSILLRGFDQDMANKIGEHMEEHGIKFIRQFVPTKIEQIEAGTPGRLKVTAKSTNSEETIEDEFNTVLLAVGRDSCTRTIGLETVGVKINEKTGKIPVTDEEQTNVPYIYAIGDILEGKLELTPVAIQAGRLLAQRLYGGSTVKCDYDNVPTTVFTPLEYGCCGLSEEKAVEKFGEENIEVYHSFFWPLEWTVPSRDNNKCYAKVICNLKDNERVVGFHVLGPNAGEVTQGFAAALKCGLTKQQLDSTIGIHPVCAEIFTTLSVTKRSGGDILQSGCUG
Nature of the data set: Inhibition of mammalian (recombinant rat) TrxR.

Another data set has as its system HeLa cells. As to conditions: 24 h.
The test system of a further data set is Gor DHB4 E. coli. Nature of the data set: Inhibition of bacterial growth (MIC), Gor DHB4 E. coli. As to conditions: Escherichia coli, DHB4E.COLI, read-out: MIC for Gor DHB4 E. coli.
The target in data set [6] is T2, E. coli TrxR. Put plainly: TrxR activity in bacterial cell lysates, insulin coupled reduction endpoint assay. Type of data set: cell-based. As to conditions: 5 μM silver and 2, 5, 10 μM ebselen, 1 h. The method, then: The reaction continued for 30 min. […] A sample without E. coli Trx was used as the background control.
In the next data set the test system is gshA^− DHB4 E. coli. Nature of the data set: Inhibition of bacterial growth (MIC), gshA^− DHB4 E. coli.
A further data set concerns wild type (wt) E. coli. Nature of the data set: Growth of wild type E. coli culture treated 1 h with silver and ebselen. As to conditions: with 5 μM silver.
Another data set concerns HEK 293T cells. Put plainly: HEK 293T cells growth (cytotoxicity). The class given is cell-based. As to conditions: Homo sapiens, HEK-293T; read-out: IG50 for HEK 293T.
The subject of the next data set is Helicobacter pylori. Put plainly: Bactericidal effects on Helicobacter pylori. The class given is cell-based. As to conditions: read-out: minimal bactericidal concentration (MBC). An excerpt: The inhibition of ebselen on H. pylori was therefore investigated. […] Taken together, our results strongly support that the inhibition of ebselen on these glutathione deficient bacteria is due to the oxidization of thioredoxin system by ebselen.

Data set [7] has as its target E. coli ribonucleotide reductase (Escherichia coli, UniProt P00452). Put plainly: Inhibition of E. coli ribonucleotide reductase. As to conditions: data not shown. Type of data set: biochemical.
A further data set relates to Bacillus subtilis. Put plainly: Growth inhibition of Bacillus subtilis by ebselen and silver, A600.
The test system of another data set is E. coli NHHJ. As to conditions: cited from earlier work.
The test system of data set [8] is Mycobacterium tuberculosis. Nature of the data set: Sensitivity of Mycobacterium tuberculosis to ebselen, radiometric BACTEC 460 system. The class given is cell-based. As to conditions: medium with 5 g/l albumin, estimate.
Data set [9] can be described thus: Glutathione peroxidase (GPx) activity of the compounds. Type of data set: biochemical. As to conditions: relative; EbSe 6 = 1.
The subject of a further data set is wild type DHB4 E. coli. Nature of the data set: Inhibition of bacterial growth (MIC), wild type DHB4 E. coli. As to conditions: Escherichia coli, DHB4E.COLI, read-out: MIC for wild type DHB4 E. coli.
Another data set has as its system E. coli gshA^− strain. As to conditions: with 5 μM silver, 1 h.

Converted amounts (≈) assume the structure as drawn. “And” between values parts separate entries of the source, which are not always exact repeats. Equal entries are not always repeated. Where two headings read alike, the source gives them in different places. A value given as a limit tells only on which side of the number the result lay.

T2 sequence (P0A9P4 whole entry): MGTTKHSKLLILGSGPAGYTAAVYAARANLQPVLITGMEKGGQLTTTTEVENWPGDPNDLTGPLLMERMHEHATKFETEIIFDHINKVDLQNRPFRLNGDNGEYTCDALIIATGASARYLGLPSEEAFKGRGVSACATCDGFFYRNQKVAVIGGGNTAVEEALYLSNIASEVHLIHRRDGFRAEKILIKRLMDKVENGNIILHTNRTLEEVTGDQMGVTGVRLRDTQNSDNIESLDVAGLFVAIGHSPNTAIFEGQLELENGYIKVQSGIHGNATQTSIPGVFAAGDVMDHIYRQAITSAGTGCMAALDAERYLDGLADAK
Chain of E. coli Trx-(SH)2 (P0AA25 whole entry): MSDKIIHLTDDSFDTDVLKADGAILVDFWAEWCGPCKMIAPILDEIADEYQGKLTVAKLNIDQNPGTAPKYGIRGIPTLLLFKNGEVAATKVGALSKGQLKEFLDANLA
Chain of H. pylori TrxR (P56431 whole entry): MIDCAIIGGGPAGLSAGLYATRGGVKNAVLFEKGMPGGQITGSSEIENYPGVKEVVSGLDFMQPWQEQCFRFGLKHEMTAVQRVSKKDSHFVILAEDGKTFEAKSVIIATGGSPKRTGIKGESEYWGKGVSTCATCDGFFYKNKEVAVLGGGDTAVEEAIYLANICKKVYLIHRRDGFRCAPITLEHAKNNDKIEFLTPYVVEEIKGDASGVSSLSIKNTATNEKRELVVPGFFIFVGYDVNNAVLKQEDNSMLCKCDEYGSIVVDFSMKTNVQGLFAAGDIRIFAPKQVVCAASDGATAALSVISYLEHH
Chain of E. coli ribonucleotide reductase (P00452 whole entry): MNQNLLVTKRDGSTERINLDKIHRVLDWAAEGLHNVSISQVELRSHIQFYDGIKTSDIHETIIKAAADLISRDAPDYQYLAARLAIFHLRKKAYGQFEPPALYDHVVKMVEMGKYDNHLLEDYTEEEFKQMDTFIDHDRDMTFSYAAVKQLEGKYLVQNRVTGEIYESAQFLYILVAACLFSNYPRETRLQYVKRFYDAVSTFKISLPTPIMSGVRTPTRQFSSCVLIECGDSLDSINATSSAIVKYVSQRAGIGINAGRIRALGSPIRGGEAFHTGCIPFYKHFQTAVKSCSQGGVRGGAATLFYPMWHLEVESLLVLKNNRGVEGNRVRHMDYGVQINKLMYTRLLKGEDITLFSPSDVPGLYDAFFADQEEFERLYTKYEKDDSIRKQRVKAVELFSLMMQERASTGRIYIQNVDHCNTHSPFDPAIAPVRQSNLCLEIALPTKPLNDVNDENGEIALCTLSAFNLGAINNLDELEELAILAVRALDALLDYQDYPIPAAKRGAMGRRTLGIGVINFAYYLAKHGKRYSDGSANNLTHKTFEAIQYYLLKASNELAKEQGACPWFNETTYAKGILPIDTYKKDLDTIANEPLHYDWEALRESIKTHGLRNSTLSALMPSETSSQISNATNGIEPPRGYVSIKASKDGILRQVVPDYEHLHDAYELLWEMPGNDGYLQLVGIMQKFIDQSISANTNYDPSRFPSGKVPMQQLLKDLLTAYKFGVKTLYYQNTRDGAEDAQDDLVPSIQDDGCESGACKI
Description for Bacillus subtilis: Bacterial growth was determined as A600 after 16 h at 37° C.
Description for E. coli gshA^− strain: (§1) The absorbance at 600 nm were measured to detect the growth of the bacteria.
(§2) E. coli strains were cultured until the OD600 got around to 0.4, and then the bacteria were treated with 5 μM silver and different concentrations of ebselen (2, 5, 10 μM).
Excerpt for Gor DHB4 E. coli: (§3) Here E. coli DHB4 strains wt, gshA^−, gor^−, oxyR^− were used as the model to test the antibiotics activity of these ebselen derivatives.
Description for HeLa cells: RAW 264.7, J774, HEK 293T, Hela cells were cultured in DMEM medium (GIBCO) supplemented with 10% FCS, 100 units/ml penicillin, and 100 μg/ml streptomycin at 37° C. in a 5% CO2 incubator. The cells were seeded in 96 micro-well plates and grown till 70-80% confluency. The cells were treated with different combination of ebselen and silver for 24 h. The cell toxicity was detected by MTT assay (15). Data are means±SD of three independent experiments.
To check whether there are synergistic toxic effects on mammalian cells, the toxicity of combination of ebselen and silver towards HeLa cells was studied. […] Nearly confluent HeLa cells were treated with combination of indicating concentration of ebselen and its analogues and silver for 24 h. then the cell toxicity was detected by MTT assay.
Excerpt for gshA^− DHB4 E. coli: as §3
Description for wild type (wt) E. coli: as §1, §2
Excerpt for wild type DHB4 E. coli: as §3

What is called Km is the concentration of substrate that gives half-maximal velocity. Usually Ki stands for the equilibrium dissociation constant of an inhibitor or competing ligand from its target. As for `O=C(Nc1ccccc1)c1ccccc1[Se][Se]c1ccccc1C(=O)Nc1ccccc1` [(EbSe)2], at Mammalian TrxR [1], the Km is 40 µM and the “kcat, mammalian TrxR” value is 1.32 s⁻¹. The “second-order rate constant of direct reduction by reduced E. coli Trx” value on E. coli Trx-(SH)2 is 1700 M⁻¹ s⁻¹. Also, the Ki on E. coli TrxR [2] is 460 ± 50 nM. Also, the “inhibition of E. coli TrxR (in words)” value at E. coli TrxR [3] was “strongly inhibited”.

What is called MIC is the lowest concentration that inhibits growth of the organism. Turning to `O=c1c2ccccc2sn1-c1ccccc1` [EbS], the “H. pylori TrxR activity” value at H. pylori TrxR is “inhibited”. In addition, at Mammalian TrxR [4], the Km was 2.5 µM and the “kcat, mammalian TrxR” value was 23.33 s⁻¹. Moreover, the MIC against H. pylori strains (NCTC11637 strain) came out at 1.56 µg/mL (≈ 6.86 µM). The compound further came in with an MIC against H. pylori strains (strain YS-16) of 0.39 µg/mL (≈ 1.72 µM). Further, at E. coli TrxR [5], the “kcat, E. coli TrxR” value is 11.7 s⁻¹. The “antibacterial activity (in words)” value in the data set on Staphylococcus aureus (ref (10)) is “lost the antibacterial activity”. For the same compound, the “inhibition of E. coli TrxR (in words)” value on E. coli TrxR [3] was “not inhibitors”. Further, the “enhancement of the toxicity of silver toward bacteria” value with E. coli is “less enhancement”.

Take `O=c1c2ccccc2[se]n1-c1ccccc1` [EbSe 6, 2-phenyl-1,2-benzisoselenazol-3(2H)-one]: in the data set on GSH, the “GSH amount in cell lysate” value was “obviously lower than the others”. Moreover, the IC50 at recombinant rat TrxR is over 10000 nM; in the data set on HEK 293T cells, 120000 nM; at E. coli TrxR [3] (DTNB assay, 100 nM TrxR, 2 μM Trx, 240 μM NADPH, 1 mM DTNB, read-out: IC50 for E. coli TrxR), 6000 nM. Also, the “inhibition of mammalian TrxR (in words)” value on recombinant rat TrxR is listed as “no inhibitory activity”. Moreover, the Michaelis-Menten constant (Km) on Mammalian TrxR [1] is 2.5 µM. In addition, on Mammalian TrxR [1], the “kcat, mammalian TrxR” value was 9.8 s⁻¹. Further, the “second-order rate constant of direct reduction by reduced E. coli Trx” value on E. coli Trx-(SH)2 was 2e+07 M⁻¹ s⁻¹. Besides, the “synergistic toxicity with silver” value with HeLa cells (5 μM) is listed as “did not show synergistic of toxicity”; in the data set on HeLa cells (20 μM, silver at high concentration), “enhanced the toxicity of silver”. In addition, the MIC in the data set on Gor DHB4 E. coli was 15 µM (≈ 4.11 µg/mL); with gshA^− DHB4 E. coli (Escherichia coli, read-out: MIC for gshA^− DHB4 E. coli), 26 µM (≈ 7.13 µg/mL); against H. pylori strains (Helicobacter pylori), 3.13 µg/mL (≈ 11.4 µM); against H. pylori strains (Helicobacter pylori, NCTC11637), 3.13 µg/mL (≈ 11.4 µM); in data set [8], under 20 µg/mL; in the data set on wild type DHB4 E. coli, 40 µM (≈ 11 µg/mL). On E. coli TrxR [6], the “TrxR activity in bacterial lysates” value is “not affected”. For the same compound, the “sensitivity of gshA^− / gor^− strains compared with wild type” value in the data set with gshA^− DHB4 E. coli (E. coli strains wt, gshA^−, gor^−) is “Wild type bacteria were more resistant than gor^− and gshA^− strains”. For the same compound, the Ki on E. coli TrxR [2] (listed as ebselen) was 150 nM and 140 nM; at E. coli TrxR [3] (Dixon plot, 6 nM TrxR, Trx 1, 2 or 4 μM, read-out: Ki for E. coli TrxR), 300 nM. In addition, the figures for the “ebselen concentration that inhibited growth” value in the data set on wild type (wt) E. coli and in the data set on E. coli gshA^− strain were 10 µM and 2 µM, respectively. For the same compound, the MBC in the data set on Helicobacter pylori (macrolide resistant strains) worked out at 12.5 µg/mL (≈ 45.6 µM); in the data set with Helicobacter pylori (two macrolide sensitive strains) it was 3.12 µg/mL (≈ 11.4 µM). The “inhibition of E. coli ribonucleotide reductase” value in data set [7] was “effective direct inhibitor”. The “effect on growth of B. subtilis” value in the data set on Bacillus subtilis (ebselen at 2 μM alone) is recorded as “did not inhibit the growth”. Besides, the “effect on antibacterial activity of silver” value in the data set on Bacillus subtilis (ebselen at 2 μM with silver) was “strongly helped the antibacterial activity of silver”. In the data set on E. coli NHHJ, the “concentration required to inhibit growth” value was “up to 50 μg per ml”. In addition, the concentration inhibiting growth with Staphylococcus aureus (Staphylococcus aureus 209P) was 0.20 µg/mL; with Staphylococcus aureus (methicillin resistant Staphylococcus aureus) it was 0.20 μg per ml. In addition, the “MIC for 90% of S. aureus strains” value in the data set on Staphylococcus aureus is reported as 1.56 μg per ml. Further, the “mode of action on S. aureus” value with Staphylococcus aureus was “bacteriocidal”. For the same compound, the “sensitivity of Staphyloccus aureus relative to E. coli” value with Staphylococcus aureus was 100 fold. The “inhibition of E. coli TrxR (in words)” value at E. coli TrxR [3] is given as “strongly inhibited”. In addition, the “Relative GPx activity” value in [9] was 1. For the same compound, the “effect of ebselen alone on bacterial growth” value in the data set on E. coli (2, 4, 8 μM, LB medium, 16 h) was “did not show the inhibition effects”.

The values above are taken from patent publication US11013730B1, “Composition comprising selenazol or thiazalone derivatives and silver and method of treatment therewith” (Thioredoxin Systems AB, priority 2014, dated 2021).
